The test system of series [1] is α-glucosidase. The series is described as follows: In vitro α-glucosidase inhibition assay (pNPG substrate). In kind it is biochemical, Saccharomyces Cerevisiae. To be noted: for IC50: means ± SEM of triplicate. As for the experimental part:
The α-glucosidase inhibition assay was performed as described previously. In summary, the stock solution of the enzyme from Saccharomyces Cerevisiae (0.2 U/mL) was prepared in 0.05 M sodium phosphate buffer pH 6.8. […] After incubation, 10 µL of the substrate, p-nitrophenyl α-D-glucopyranoside (pNPG, 5 mM solution in 0.05 M phosphate buffer) was added to the aboveprepared mixture and incubated again under the same experimental conditions. The reaction was stopped with the addition of 0.1 M Na2CO3 and OD405 was taken by a 96-well ELISA reader. The experiment was performed in triplicate.

In the next series the test system is S. aureus (DR). Nature of the series: Antibacterial activity, minimum inhibitory concentration. In kind it is cell-based. Also noted: key: R: resistant; S: sensitive. As for the experimental part: (§1) The prepared azo derivatives were screened for their antibacterial activity against six bacterial strains obtained from hospital isolates i.e. gram positive (S. aureus, S. aureus (DR)) and gram-negative (E. coli, P. aeruginosa, P. aeruginosa (DR), P. vulgaris). All the strains were confirmed by biochemical identification and drug susceptibility methods. The antibacterial evaluation was done by agar disc diffusion method[39]^,[40] and MIC was determined. In summary, a 48-h old inoculum having ∼0.48 OD600, of the above-mentioned bacterial strains was spread on the solidified trypticase soy agar media and Whatman no. 1 filter paper discs (5 mm in diameter) soaked with the title compounds (10 µL/disc of 10 mg/mL) were placed on the plates. Ampicillin and moxifloxacin were used as positive controls and DMSO as negative control respectively.

Series [2] concerns P. aeruginosa (DR). The series is described as above. In kind it is cell-based. Also noted: key: R: resistant; S: sensitive. As for the experimental part: as §1
Series [3] deals with S. aureus (DS). Described as above. In kind it is cell-based. Also noted: key: R: resistant; S: sensitive. The procedure: as §1
The test system of the next series is E. coli. Described as above. It counts as cell-based. Also noted: key: R: resistant; S: sensitive. The procedure: as §1
For a further series, the system named is P. vulgaris. The series is described as above. Also noted: key: R: resistant; S: sensitive. It counts as cell-based. The procedure:
as §1

In series [4] the test system is P. aeruginosa (DS). The series is described as above. Set-up: key: R: resistant; S: sensitive. It counts as cell-based. The procedure: as §1
For series [5], the system named is P. aeruginosa (DR). Nature of the series: Antibiofilm assay (crystal violet). In kind it is cell-based. To be noted: 0.5 mg/mL. As for the experimental part: (§2) The antibiofilm activity of the synthesised azo derivatives was assessed by microtitre plate-based crystal violet method[44] against respective bacterial strains i.e. gram-positive (S. aureus, S. aureus (DR)) and gram-negative (P. aeruginosa, P. aeruginosa (DR)). In brief, 10 µL bacterial suspension, 100 µL trypticase soy broth and 10 µL (10 mg/mL) of test compounds were added in the wells in duplicates and incubated at 37 °C overnight. Ampicillin and moxifloxacin were used as positive controls. After the aspiration of planktonic cells, the biofilm was fixed with 99% methanol. The wells were then washed with 0.1 M sterile PBS (pH = 6.9) thrice and air-dried. Then, 200 µL of crystal violet solution (2%) was added to all wells. After 15 min, the excess of the crystal violet dye was removed and the wells were washed again with PBS. Then, the cell-bound crystal violet was dissolved in 33% acetic acid. The biofilm growth was quantified in terms of OD575 nm using an ELISA plate reader and biofilm hydrolysis was calculated by % inhibition formula.

In series [6] the target is α-glucosidase. Nature of the series: Kinetic analysis and inhibition mechanism of α-glucosidase inhibition. It counts as biochemical, Saccharomyces Cerevisiae. The procedure: The potential inhibitor with concentrations 0.00, 0.062, 0.125, 0.25, 0.5 mM was selected for kinetic studies. The substrate (pNPG) concentration was optimised from 5 to 40 mM in all kinetic studies. Pre-incubation and measurement time was the same as discussed in α-glucosidase inhibition assay. The assay was continuously monitored at 405 nm for 5 min at 30 s intervals in the microplate reader after the addition of the enzyme. The inhibition type on the enzyme was assayed by Lineweaver–Burk plots of the inverse of velocities (1/V) versus the inverse of substrate concentration 1/[S] mM^−1, and the inhibition constant Ki was determined by two ways (Dixon plot of 1/V versus inhibitor concentrations) as well as secondary replot of slope versus inhibitor concentrations from Lineweaver–Burk plot.
The plot of the remaining enzyme activity versus the concentrations of the enzyme at different inhibitor concentrations (0.00, 0.062, 0.125, 0.25 and 0.5 mM) was calculated.

The subject of series [7] is S. aureus (DS). Nature of the series: Antibiofilm assay (crystal violet). In kind it is cell-based. To be noted: 0.5 mg/mL. As for the experimental part:
as §2

Series [8] has as its system screened pathogens (S. aureus, P. aeruginosa, E. coli and P. vulgaris). The series is described as follows: Antibacterial activity, average MIC over screened pathogens. In kind it is cell-based. The procedure:
as §1, with “All the strains were confirmed by biochemical identification and drug susceptibility methods.” left out, “plates.” for “plates. Ampicillin and moxifloxacin were used as positive controls and DMSO as negative control respectively.”

For series [9], the system named is P. aeruginosa (DS). Nature of the series: Antibiofilm assay (crystal violet). It counts as cell-based. To be noted: 0.5 mg/mL. As for the experimental part: as §2

We go through four molecules from publication PMC8274517, “Diaryl azo derivatives as anti-diabetic and antimicrobial agents: synthesis, in vitro, kinetic and docking studies” (Journal of Enzyme Inhibition and Medicinal Chemistry, 2021).

The % Inhibition is the change of the read-out against control, counted positive when it falls. The IC50 is the concentration that gives 50% inhibition. By Ki is commonly meant the dissociation constant of the complex between target and ligand, obtained from inhibition or displacement. For orientation: Km means the substrate concentration at which the rate is half of its maximum. The melting point is the temperature of the solid-liquid transition.

≈ marks a conversion by molar mass, not a printed value. Entries after “also recorded” stand apart in the source; their conditions may differ.

Turning to “(E)-1-(p-tolyldiazenyl)naphthalen-2-ol [TR-5]”, the “% Inhibition” value worked out at 14% in the series with α-glucosidase [1] (15.62 µg/mL), 22% with α-glucosidase [1] (31.2 µg/mL), 49% in the series on α-glucosidase [1] (125 µg/mL) and 56% in the series on α-glucosidase [1] (250 µg/mL). On α-glucosidase [1], this molecule returned an IC50 of 153.4 ± 11.5 µg/mL. Moreover, the “Minimum inhibitory concentration: sensitive/resistant” value in the series on S. aureus (DR) (125 µg/200 µL) was “S”; with S. aureus (DR) (250 µg/200 µL) it was “S”; in the series with P. aeruginosa (DR) [2] (125 µg/200 µL), “S”; in the series on P. aeruginosa (DR) [2] (250 µg/200 µL), “S”; in the series on S. aureus (DS) [3] (125 µg/200 µL), “R”; in the series on S. aureus (DS) [3] (250 µg/200 µL), “R”. Besides, the “Minimum inhibitory concentration: sensitive/resistant” value is listed as “S” with E. coli (125 µg/200 µL); “S” in the series with E. coli (250 µg/200 µL); “R” in the series on P. vulgaris (125 µg/200 µL); “R” in the series on P. vulgaris (250 µg/200 µL); “R” in the series on P. aeruginosa (DS) [4] (125 µg/200 µL); “S” with P. aeruginosa (DS) [4] (250 µg/200 µL). Also, the “biofilm inhibition (anti-biofilm potency)” value with P. aeruginosa (DR) [5] stood at 80%.
`O=[N+]([O-])c1ccc(/N=N/c2ccc(O)cc2O)cc1` [TR-1, (E)-4-((4-nitrophenyl)diazenyl)benzene-1,3-diol]: the “% Inhibition” value came to 49% with α-glucosidase [1] (15.62 µg/mL), 68% with α-glucosidase [1] (31.2 µg/mL), 88% in the series with α-glucosidase [1] (125 µg/mL) and 95% in the series on α-glucosidase [1] (250 µg/mL). Further, the IC50 at α-glucosidase [1] is on record as 15.70 ± 1.3 µg/mL (≈ 60.6 µM). The inhibition constant (Ki) on α-glucosidase [6] (EI dissociation constant, Dixon plot and secondary replot) amounted to 220 µM. Further, in the series with α-glucosidase [6] (Lineweaver–Burk plot), the Inhibition type result is reported as “Non-competitive”. Further, the Km in the series with α-glucosidase [6] (inhibitor dose 0.062 mM), in the series on α-glucosidase [6] (inhibitor dose 0.125 mM), with α-glucosidase [6] (inhibitor dose 0.25 mM) and with α-glucosidase [6] (inhibitor dose 0.50 mM) was 20 mM each time. In addition, the Vmax in the series on α-glucosidase [6] (inhibitor dose 0.062 mM) is on record as 0.166 ΔA/S; in the series with α-glucosidase [6] (inhibitor dose 0.125 mM) it was 0.125 ΔA/S; in the series with α-glucosidase [6] (inhibitor dose 0.25 mM) it was 0.090 ΔA/S; with α-glucosidase [6] (inhibitor dose 0.50 mM), 0.071 ΔA/S. Further, in the series on α-glucosidase [6] (remaining enzyme activity versus enzyme concentration), the “Inhibition (reversibility)” value is “reversibly; also recorded: reversible”. Moreover, the “Minimum inhibitory concentration: sensitive/resistant” value with S. aureus (DR) (125 µg/200 µL) is “R”; with S. aureus (DR) (250 µg/200 µL), “R”; in the series with P. aeruginosa (DR) [2] (125 µg/200 µL), “S”; in the series with P. aeruginosa (DR) [2] (250 µg/200 µL) it was “S”; in the series on S. aureus (DS) [3] (125 µg/200 µL) it was “S”; in the series on S. aureus (DS) [3] (250 µg/200 µL), “S”. For the same molecule, the “Minimum inhibitory concentration: sensitive/resistant” value with E. coli (125 µg/200 µL) is “S”; in the series on E. coli (250 µg/200 µL), “S”; with P. vulgaris (125 µg/200 µL), “S”; in the series with P. vulgaris (250 µg/200 µL), “S”; with P. aeruginosa (DS) [4] (125 µg/200 µL), “R”; with P. aeruginosa (DS) [4] (250 µg/200 µL), “R”. Besides, the biofilm inhibition entry in the series on S. aureus (DS) [7] is “greater than 70%”. In addition, the “MIC (average value)” value in [8] was determined as 125 µg/200 µL.
In turn, `O=[N+]([O-])c1ccc(/N=N/c2c(O)ccc3ccccc23)cc1` [TR-3, (E)-1-((4-nitrophenyl)diazenyl)naphthalen-2-ol] gave a melting point of 245 to 252 °C. Besides, the “% Inhibition” value with α-glucosidase [1] (15.62 µg/mL) was 12%. Also, the “% Inhibition” value with α-glucosidase [1] (31.2 µg/mL) is listed as 25%. For the same molecule, the “% Inhibition” value in the series with α-glucosidase [1] (125 µg/mL) is recorded as 54%. The same molecule displayed an IC50 on α-glucosidase [1] of 116.9 ± 8.6 µg/mL (≈ 399 µM). Further, in the series with S. aureus (DR) (125 µg/200 µL), the “Minimum inhibitory concentration: sensitive/resistant” value was “R”. Moreover, in the series on S. aureus (DR) (250 µg/200 µL), the “Minimum inhibitory concentration: sensitive/resistant” value is reported as “R”. Also, in the series with P. aeruginosa (DR) [2] (125 µg/200 µL), the “Minimum inhibitory concentration: sensitive/resistant” value is recorded as “R”. The “Minimum inhibitory concentration: sensitive/resistant” value in the series on P. aeruginosa (DR) [2] (250 µg/200 µL) is “R”. In addition, the “Minimum inhibitory concentration: sensitive/resistant” value in the series on S. aureus (DS) [3] (125 µg/200 µL) was “R”. Besides, the “Minimum inhibitory concentration: sensitive/resistant” value with S. aureus (DS) [3] (250 µg/200 µL) was “R”. In the series on E. coli (125 µg/200 µL), the “Minimum inhibitory concentration: sensitive/resistant” value was “R”. Further, in the series on E. coli (250 µg/200 µL), the “Minimum inhibitory concentration: sensitive/resistant” value is “R”. Besides, the “Minimum inhibitory concentration: sensitive/resistant” value with P. vulgaris (125 µg/200 µL) is “R”. The “Minimum inhibitory concentration: sensitive/resistant” value in the series with P. vulgaris (250 µg/200 µL) is listed as “R”. Moreover, the “Minimum inhibitory concentration: sensitive/resistant” value in the series with P. aeruginosa (DS) [4] (125 µg/200 µL) is given as “R”. Also, in the series with P. aeruginosa (DS) [4] (250 µg/200 µL), the “Minimum inhibitory concentration: sensitive/resistant” value was “S”. Besides, the biofilm inhibition entry in the series with S. aureus (DS) [7] was “greater than 70%”.
Consider penicillin [reference compound], for which the biofilm inhibition is recorded as 65% in the series with S. aureus (DS) [7] and 60% in the series on P. aeruginosa (DS) [9].
